Here are results for three compounds from US9504675B2, “Alpha-ketoheterocycles and methods of making and using” (The Scripps Research Institute, priority 2011, dated 2016).

In data set [1] the test system is endogenous levels of FAAH substrates AEA, PEA, OEA and of 2-AG, AA. The experiment in a line: In vivo pharmacodynamic studies: brain and liver lipid levels after inhibitor treatment (LC-MS). Set-up: species or system mouse (C57BL/6J).
Protocol: This includes monitoring the effects of the inhibitors on the endogenous levels of the FAAH substrates anandamide (AEA, N-arachidonoyl ethanolamine), N-oleoyl ethanolamine (OEA), and N-palmitoyl ethanolamine (PEA), as well as the key lipids 2-arachidonoylglycerol (2-AG) and arachidonic acid (AA) that are not endogenous substrates for FAAH.
Inhibitors were prepared as a saline-emulphor emulsion for intraperitoneal (i.p.) administration by vortexing, sonicating, and gently heating neat compound directly into an 18:1:1 v/v/v solution of saline:ethanol:emulphor, or as a homogeneous PEG solution for oral administration (p.o.) by vortexing, sonicating, and gently heating neat compound directly into PEG300 (Fluka). Male C57BL/6J mice (<6 months old, 20-28 g) were administered inhibitors in saline-emulphor emulsion or an 18:1:1 v/v/v saline:emulphor:ethanol vehicle i.p. at a volume of 10 μL/g weight, or alternatively inhibitors in PEG300 or a PEG300 vehicle p.o. at a volume of 4 μL/g weight. After the indicated amount of time, mice were anesthetized with isofluorane and killed by decapitation. Total brains (˜400 mg) and a portion of the liver (˜100 mg) were removed and flash frozen in liquid N2.
Tissue was weighed and subsequently Dounce homogenized in 2:1:1 v/v/v CHCl3:MeOH:Tris pH 8.0 (8 mL) containing standards for lipids (50 pmol d4-PEA, 2 pmol d4-AEA, 0.5 nmol ds-2-AG, and 10 nmol pentadecanoic acid). The mixture was vortexed and then centrifuged (1,400×g, 10 min). The organic layer was removed, dried under a stream of N2, resolubilized in 2:1 v/v CHCl3:MeOH (120 μL), and 10 μL of this resolubilized lipid was injected onto an Agilent G6410B QQQ instrument. […] Mobile phase A was composed of a 95:5 v/v H2O:MeOH, and mobile phase B was composed of a 65:35:5 v/v/v i-PrOH:MeOH:H2O. 0.1% Formic acid or 0.1% ammonium hydroxide was included to assist in ion formation in positive and negative ionization mode, respectively. The flow rate for each run started at 0.1 mL/min with 0% B. At 5 min, the solvent was immediately changed to 60% B with a flow rate of 0.4 mL/min and increased linearly to 100% B over 10 min. […] MS analysis was performed with an electrospray ionization (ESI) source. […] For negative polarity, the analysis was performed in MS2 scan mode from 100-1000 m/z. The capillary was set to 4 kV, the fragmentor was set to 100 V, and the delta EMV was set to 0. Lipids were quantified by measuring the area under the peak in comparison to the standards.
The next data set concerns the target T1, human FAAH (hFAAH) (Homo sapiens, UniProt O00519).
T1 construct: The full-length human FAAH (hFAAH) was expressed in COS-7 cells; expressed in transfected cells; host or cells: COS-7 (transiently transfected with human FAAH cDNA)
T1 sequence (O00519 1-579): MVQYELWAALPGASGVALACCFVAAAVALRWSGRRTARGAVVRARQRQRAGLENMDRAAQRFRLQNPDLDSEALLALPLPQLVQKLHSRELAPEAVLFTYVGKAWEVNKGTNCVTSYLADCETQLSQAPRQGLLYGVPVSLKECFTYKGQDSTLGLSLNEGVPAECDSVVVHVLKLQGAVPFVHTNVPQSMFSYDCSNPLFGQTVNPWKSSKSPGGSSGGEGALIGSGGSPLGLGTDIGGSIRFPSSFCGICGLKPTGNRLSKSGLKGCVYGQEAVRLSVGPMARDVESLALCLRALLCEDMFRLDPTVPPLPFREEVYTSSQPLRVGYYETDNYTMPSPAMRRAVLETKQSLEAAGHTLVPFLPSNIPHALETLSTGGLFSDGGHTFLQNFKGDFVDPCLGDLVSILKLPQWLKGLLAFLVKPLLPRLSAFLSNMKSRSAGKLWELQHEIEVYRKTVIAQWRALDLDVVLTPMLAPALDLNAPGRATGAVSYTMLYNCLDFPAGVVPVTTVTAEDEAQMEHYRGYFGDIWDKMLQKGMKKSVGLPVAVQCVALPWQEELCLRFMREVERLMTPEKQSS
The data set is described as follows: Enzyme assay: inhibition of human FAAH (lysate of hFAAH-transfected COS-7 cells), 14C-oleamide hydrolysis. Format: biochemical. As to conditions: for reduction in activity against the human enzyme versus rat FAAH: hFAAH vs rFAAH, active (S)-enantiomers. The protocol:
Enzyme assays were performed at 20-23° C. with purified recombinant rat FAAH expressed in Escherichia coli or with solubilized COS-7 membrane extracts from cells transiently transfected with human FAAH cDNA (where specifically indicated) in a buffer of 125 mM Tris/1 mM EDTA/0.2% glycerol/0.02% Triton X-100/0.4 mM Hepes, pH 9.0.
^14C-labeled oleamide was prepared from ^14C-labeled oleic acid. The truncated rat FAAH (rFAAH) was expressed in E. coli and purified. The purified recombinant rFAAH was used in the inhibition assays unless otherwise indicated. The full-length human FAAH (hFAAH) was expressed in COS-7 cells as described, and the lysate of hFAAH-transfected COS-7 cells was used in the inhibition assays where explicitly indicated.
The inhibition assays were performed as follows. […] The enzyme reaction was terminated by transferring 20 μL of the reaction mixture to 500 μL of 0.1 N HCl at three different time points. The ^14C-labeled oleamide (substrate) and oleic acid (product) were extracted with EtOAc and analyzed by TLC as detailed. The Ki of the inhibitor was calculated using a Dixon plot as described (standard deviations are provided in the Supporting Information tables).

Data set [2] is described as follows: Human liver microsome stability (hlm t1/2). Format: in vitro ADME. As to conditions: human liver microsomes. (In general: Liver microsomes are a subcellular fraction often used to study metabolism.)
Data set [3] can be described thus: Rat liver microsome stability (rlm t1/2). The format is in vitro ADME. As to conditions: rat liver microsomes.
The test system of data set [4] is mice, acute thermal pain (tail flick at 52° C.). The experiment in a line: Mouse tail flick assay (52° C. warm water), acute thermal pain. As to conditions: i.v. administration. Format: in vivo, mouse (CD-1). The method, then:
Concurrent with these studies, two prototypical inhibitors 12 and 14 were examined for antinociceptive activity in a preclinical model of acute thermal pain (tail flick at 52° C.) in mice alongside 2 and morphine (i.v. administration).
Male CD-1 (25-35 g, Charles River) mice were housed in groups of five in Plexiglas chambers with food and water available ad libitum. All animals were maintained on a 12 h light/dark cycle (lights on at 7:00 AM) in a temperature- and humidity-controlled animal colony. All tail-flick experiments were performed under an approved University of New England animal protocol in accordance with institutional guidelines and in accordance with the Guide for the Care and Use of Laboratory Animals as adopted and promulgated by the National Institutes of Health. Efficacy of the test compound was assessed using the 52° C. warm water tail-flick test. The latency to the first sign of a rapid tail-flick was taken as the behavioral endpoint. Each mouse was first tested for baseline latency by immersing its tail in the water and recording the time to response. Mice not responding within 5 sec were excluded from further testing. Mice were then administered the test compound and tested for antinociception at various time points afterwards. Antinociception was calculated by the following formula: % Antinociception=100×(test latency−control latency)/(10−control latency). A maximum score was assigned (100%) to animals not responding within 10 sec to avoid tissue damage.
(In general: In hot-plate and tail-flick tests a longer latency is read as antinociception.)

In data set [5] the target is T2, recombinant rat FAAH (rFAAH) (Rattus norvegicus, UniProt P97612).
T2 construct: The truncated rat FAAH (rFAAH) was expressed in E. coli and purified; made in house; host or cells: Escherichia coli
T2 sequence (P97612 30-579 limits assumed): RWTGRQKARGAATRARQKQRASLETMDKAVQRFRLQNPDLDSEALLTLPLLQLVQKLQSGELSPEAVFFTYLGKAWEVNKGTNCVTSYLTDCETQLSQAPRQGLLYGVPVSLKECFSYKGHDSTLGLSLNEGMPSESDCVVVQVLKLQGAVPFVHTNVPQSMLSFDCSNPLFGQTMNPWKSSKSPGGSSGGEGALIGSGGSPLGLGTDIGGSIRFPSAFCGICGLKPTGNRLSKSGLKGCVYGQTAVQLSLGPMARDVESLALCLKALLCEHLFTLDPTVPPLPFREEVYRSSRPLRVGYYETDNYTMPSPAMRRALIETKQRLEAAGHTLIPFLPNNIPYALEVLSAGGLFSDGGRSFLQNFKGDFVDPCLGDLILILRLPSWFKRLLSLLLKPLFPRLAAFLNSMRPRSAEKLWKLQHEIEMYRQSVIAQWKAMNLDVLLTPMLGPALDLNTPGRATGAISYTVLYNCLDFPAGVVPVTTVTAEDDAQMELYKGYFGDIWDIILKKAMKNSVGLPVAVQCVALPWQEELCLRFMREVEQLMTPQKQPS
The experiment in a line: Enzyme assay: inhibition of purified recombinant rat FAAH, 14C-oleamide hydrolysis, Ki by Dixon plot. As to conditions: Ki, rFAAH, Table 5, active (S)-enantiomers. The format is biochemical. The procedure, abridged: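 Hydrolysis of 14C-oleamide at 20-23° C by purified truncated rat FAAH expressed in E. coli or by lysate of COS-7 cells transfected with full-length human FAAH, in 125 mM Tris/1 mM EDTA/0.2% glycerol/0.02% Triton X-100/0.4 mM Hepes, pH 9.0. Reaction stopped in 0.1 N HCl at three time points; substrate and product separated by TLC; Ki from Dixon plot.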

The mark [6] stands for this setting: Table 6, 30 mg/kg i.p., 1 h, single mouse.
The mark [7] stands for this setting: Table 6, 30 mg/kg i.p., 1 h, single mouse, vs vehicle.
Setting [8] is: Table 7, i.p. (30 mg/kg), 3 mice per group.
Where [9] appears, read: Table 7, i.p. (30 mg/kg), 3 mice per group, vs vehicle.
[10] abbreviates: Table 7, oral (50 mg/kg), 3 mice per group.
Where [11] appears, read: Table 7, oral (50 mg/kg), 3 mice per group, vs vehicle.

The half-life is how long it takes for the measured level to halve. Lower therefore signals fast loss. Regarding `O=C(CCCCCCc1ccccc1)c1ncc(-c2ccccn2)o1` [Compound 2, reference compound], in data set [1] (setting [6]), the “Brain AEA” value was found to be 38 pmol/g, the “Brain PEA” value is reported as 540 pmol/g, the “Liver 2-AG” value is recorded as 0.28 pmol/g and the “Liver AEA” value is listed as 14 pmol/g. Moreover, in data set [1] (setting [6]), the “Liver PEA” value was 208 pmol/g. Moreover, in data set [1] (setting [7]), the “Brain AEA (fold increase)” value worked out at 4.8 fold increase, the “Brain PEA (fold increase)” value is given as 5.0 fold increase, the “Liver 2-AG (fold increase)” value came to 0.9 fold increase and the “Liver AEA (fold increase)” value is reported as 7 fold increase. Moreover, the “Liver PEA (fold increase)” value in data set [1] (setting [7]) was determined as 1.6 fold increase. For the same compound, the “increase in brain levels of anandamide” value in data set [1] (p.o. 50 mg/kg, 1 h) stood at 11 fold. Moreover, the “reduction in activity against the human enzyme versus rat FAAH” value at human FAAH (hFAAH) is given as “no significant distinction”. Further, the half-life in data set [2] fell in the range of 2 to 4 min. In data set [3], the half-life fell in the range of 2 to 4 min.

By Ki is commonly meant a measure of affinity in units of concentration, obtained from inhibition or displacement. Regarding `O=C(O)c1cccc(-c2cnc(C(=O)C3CCc4cc(Oc5ccccc5)ccc4C3)o2)n1` (centres unmarked) [Compound 14, 6-(2-(6-Phenoxy-1,2,3,4-tetrahydronaphthalene-2-carbonyl)oxazol-5-yl)picolinic acid], in data set [1] (setting [6]), the “Brain 2-AG” value was found to be 14 pmol/g, the “Brain AA” value turned out to be 154 pmol/g, the “Brain AEA” value was determined as 12 pmol/g and the “Brain PEA” value is on record as 224 pmol/g. Further, in data set [1] (setting [6]), the “Liver 2-AG” value came to 0.35 pmol/g, the “Liver AEA” value was determined as 10 pmol/g and the “Liver PEA” value is 284 pmol/g. Besides, in data set [1] (setting [7]), the “Brain 2-AG (fold increase)” value stood at 1.0 fold increase, the “Brain AA (fold increase)” value is 0.7 fold increase, the “Brain AEA (fold increase)” value turned out to be 1.5 fold increase and the “Brain PEA (fold increase)” value came to 2.0 fold increase. Also, in data set [1] (setting [7]), the “Liver 2-AG (fold increase)” value is 1.1 fold increase, the “Liver AEA (fold increase)” value was 5 fold increase and the “Liver PEA (fold increase)” value was found to be 2.1 fold increase. In data set [1] (setting [8]), the “Brain 2-AG” value came to 8.5 pmol/g, the “Brain AEA” value is given as 9.0 pmol/g and the “Brain PEA” value was found to be 321 pmol/g. Further, in data set [1] (setting [9]), the “Brain AEA (fold increase)” value came out at 1.6 fold increase and the “Brain PEA (fold increase)” value is 4.5 fold increase. For the same compound, in data set [1] (setting [10]), the “Brain 2-AG” value turned out to be 11.2 pmol/g, the “Brain AEA” value worked out at 19.8 pmol/g and the “Brain PEA” value is 260 pmol/g. In addition, in data set [1] (setting [11]), the “Brain AEA (fold increase)” value is listed as 3.5 fold increase and the “Brain PEA (fold increase)” value is on record as 3.7 fold increase. In addition, at human FAAH (hFAAH) (Table 5, active (S)-enantiomers), the Ki is 0.11 µM. Also, the “reduction in activity against the human enzyme versus rat FAAH” value at human FAAH (hFAAH) worked out at 4 fold. In data set [4], the “dose needed for maximal effect relative to morphine” value came out at 2 fold, the “duration of antinociceptive effect” value came out at 150 min and the “time of maximal antinociceptive effect” value is 30 to 60 min. In addition, in data set [4] (dose-response alongside morphine), the “maximal antinociceptive effect (efficacy)” value is on record as “same maximal effect (efficacy) observed with morphine”. Also, the Ki in data set [5] is 0.025 µM.

`O=C(c1ncc(-c2ccccn2)o1)C1CCc2cc(OCc3ccccc3)ccc2C1` (centres unmarked) [Compound 18, (6-(Benzyloxy)-1,2,3,4-tetrahydronaphthalen-2-yl)(5-(pyridin-2-yl)oxazol-2-yl)methanone]: the half-life in data set [2] and in data set [3] was 12 to 15 min each time.
